Patent US6380203B1, “Angiogenesis inhibitors” (Merck & Co., Inc., priority 1998, dated 2002)

c1cc(-c2cnn3cc(-c4ccc(OCCN5CCOCC5)cc4)cnc23)cs1 [Example 4, 3-(3-thienyl)-6-(4-(2-(4-morpholinyl)ethoxy)phenyl) pyrazolo(1,5-A)pyrimidine]
melting point: 149 to 151 °C
